Patent publication US12391695B2, “PRMT5 inhibitors” (Lupin Limited, priority 2019, dated 2025)
Where two headings read alike, the source gives them in different places.

Experiments:
PRMT5:MEP50 = PRMT5:MEP50 (Homo sapiens, UniProt O14744); assay: PRMT5 biochemical assay (HTRF, biotinylated H4R3 substrate), protocols 1 and 2; settings: 1 μM SAM, 50 nM biotinylated H4R3, protocol 1 or 2 not given, read-out: IC50 (activity range), inhibition of PRMT5
Protocol: (§1) Inhibitory effect of compounds on PRMT5 was assessed using HTRF detection technology in biochemical assay. Biotinylated H4R3 (residues 1-21) was used as a substrate. Compounds were pre-incubated with 15-25 ng PRMT5:MEP50 per well of a 384-well plate for 30 min at room temperature in the assay buffer containing 20 mM Bicine, pH 7.6, 25 mM NaCl, 2 mM DTT, 0.01% Chicken albumin and 0.01% Tween-20. Reaction was initiated by adding 1 μM of SAM and 50 nM biotinylated H4R3. Total assay volume was 15 μL. Reaction was continued for 120 min at room temperature. Then detection solution containing Streptavidin-Eu cryptate, anti-rabbit IgG-XL-665, Histone H4R3 Dimethyl Symmetric (H4R3me2s) Polyclonal Antibody, all prepared in HTRF detection buffer was added and further incubated for 30 min at room temperature. HTRF signal was recorded in PHERAStar microplate reader. Ratio of signal obtained at 665 nm and 620 nm was used to compute the percent inhibition of compound as follows % Inhibition=100−((Test Ratio−Negative control Ratio)/(Positive control Ratio−Negative control Ratio)*100) where Positive control=PRMT5+SAM+H4R3 Negative control=PRMT5+H4R3 Biochemical Assay Protocol 2
as §1, with “2.5” for “15-25”, “4 h” for “120 min”, “control=PRMT5+H4R3” for “control=PRMT5+H4R3 Biochemical Assay Protocol 2”

SDMA = SDMA inhibition assay in Z-138 cells (ELISA with anti-SDMA antibody); format: cell-based; settings: Homo sapiens, Z-138, 48 h, 48 h treatment
Protocol: Z-138 cells (ATCC, CRL-3001™) were seeded at a density of 1 million cells/well in transparent, flat bottomed tissue culture grade 48-well plates. Cells were treated with various concentration of test compounds for a period of 48 h. Cell lysate was prepared using 1× CST Lysis buffer (Cell Signaling Technology, USA) and 500 ng/well/50 μL of lysate in pH 9.6 carbonate buffer was coated on 96-well Maxisorb plate and incubated overnight at 4° C. The plate was washed twice in 1×PBS containing 0.05% Tween 20 and blocked in 1% BSA for 1 h at ambient temperature. Further, the plate was incubated first with primary antibody (anti-SDMA antibody; CST #13222s) at ambient temperature for 2 h and then with HRP-conjugated secondary antibody at ambient temperature for 1 h with 2 intermittent washing steps in between.
For luminiscence based detection, HRP substrates (substrate A+substrate B in a 1:1 proportion) were added followed by luminiscence reading after 30 min in Synergy™ 2 reader (Biotek, USA).
For absorbance based detection, TMB substrate was added followed by addition of STOP solution (2N H2SO4) post colour development and absorbance (excitation 450 nm and emission 540 nm) was measured in Synergy™ 2 reader (Biotek, USA).
% inhibition of SDMA was calculated relative to the vehicle control samples containing media with 0.1% DMSO alone as per the formula below. (Avg. of Untreated Control−Avg. of Test)×100 Avg. Of Untreated Control
The IC50 values of individual compounds were calculated with Non Linear Regression Analysis using Graph Pad Prism (Graph Pad software, Inc, USA).

Z-138 cells = assay: Anti-cancer assay (Z-138), cell viability by CellTiterGlo; format: cell-based; settings: Homo sapiens, 96 h treatment, read-out: IC50 (activity range), inhibition of cell viability
Protocol: Z-138 cells were seeded at a density of 2000-3000 cells per well in culture media (IMDM+10% FBS). PANC-1 (ATCC, CRL-1469™) and MIA PaCa-2 (ATCC, CRL-1420™) cells were seeded at a density of 200-300 cells per well in culture media (DMEM+10% FBS). Cells were seeded in opaque, flat bottomed tissue culture grade 96-well plates and Z-138 cells (suspension) were seeded and treated on the same day with various concentrations of test compounds. PANC-1 and MIA PaCa-2 cells, being adherent, were kept for overnight settlement at standard cell culture conditions (37° C., 5% CO2). On the following day, cells were treated with various concentrations of test compounds. Cells were treated with test compounds for a period of 96 h, 7 days and 10 days, for Z-138 cells, PANC-1 cells and MIA PaCa-2 cells, respectively. Cell viability was assessed using CellTiterGlo™ (Promega, USA) as per manufacturer's instructions. Relative Light Units (RLU) were read in Synergy™ 2 reader (Biotek, USA). The assay measures cellular ATP as an indicator of cell viability. RLU is proportional to the number of viable cells in the respective well. % inhibition of cell viability was calculated relative to the vehicle control samples containing media with 0.1% DMSO alone as per the formula below. (Avg. of Untreated Control−Avg. of Test)×100 Avg. Of Untreated Control
The IC50 values of individual compounds were calculated with Non Linear Regression Analysis using Graph Pad Prism (Graph Pad software, Inc, USA). • Anti-Cancer Assay (Z-138)

[1] = read-out: IC50 (activity range), SDMA inhibition
[2] = range with mixed units pM/nM, units kept in the value

Chain of PRMT5:MEP50 (O14744 whole entry, the tested form may be a part): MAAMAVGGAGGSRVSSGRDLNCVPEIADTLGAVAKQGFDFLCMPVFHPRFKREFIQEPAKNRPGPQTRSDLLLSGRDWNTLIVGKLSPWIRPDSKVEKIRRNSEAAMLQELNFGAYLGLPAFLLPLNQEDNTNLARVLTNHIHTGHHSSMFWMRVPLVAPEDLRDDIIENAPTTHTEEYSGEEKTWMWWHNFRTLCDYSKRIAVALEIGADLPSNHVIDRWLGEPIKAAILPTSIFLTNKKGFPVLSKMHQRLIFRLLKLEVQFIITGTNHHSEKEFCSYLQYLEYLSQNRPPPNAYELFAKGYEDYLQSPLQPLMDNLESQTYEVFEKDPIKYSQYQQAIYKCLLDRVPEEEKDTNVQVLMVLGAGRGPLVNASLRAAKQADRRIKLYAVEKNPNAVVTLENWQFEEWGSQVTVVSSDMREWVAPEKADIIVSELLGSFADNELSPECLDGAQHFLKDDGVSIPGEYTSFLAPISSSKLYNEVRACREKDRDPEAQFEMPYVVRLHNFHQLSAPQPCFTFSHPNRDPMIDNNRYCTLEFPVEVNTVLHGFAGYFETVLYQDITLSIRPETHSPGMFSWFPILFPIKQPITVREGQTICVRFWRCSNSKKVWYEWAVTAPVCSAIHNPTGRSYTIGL
Chain of PRMT5:MEP50 (Q9BQA1 whole entry partner, the tested form may be a part): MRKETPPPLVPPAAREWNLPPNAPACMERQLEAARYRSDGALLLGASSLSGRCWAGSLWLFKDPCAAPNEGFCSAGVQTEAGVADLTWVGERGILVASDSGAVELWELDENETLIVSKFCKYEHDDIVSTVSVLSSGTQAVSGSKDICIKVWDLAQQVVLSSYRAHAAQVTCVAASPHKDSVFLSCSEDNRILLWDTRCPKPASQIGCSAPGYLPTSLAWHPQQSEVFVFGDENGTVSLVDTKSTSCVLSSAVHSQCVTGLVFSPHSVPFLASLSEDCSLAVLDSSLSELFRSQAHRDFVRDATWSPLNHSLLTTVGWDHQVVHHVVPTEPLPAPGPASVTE

Row | SMILES | IC50 (PRMT5:MEP50) [nM] | IC50 (SDMA; [1]) [pM] | IC50 (Z-138 cells) [pM] | IC50 (SDMA; [2]) [pM] | IC50 (Z-138 cells; [2]) [pM]
1 | CC1Cc2c(F)c(C(F)F)cc(CCC3=C[C@@H](n4ccc5c(N)ncnc54)[C@H](O)[C@@H]3O)c2CN1 (single isomer, unassigned) [Compound 23A] | 0.25 to 0.95 |  |  | 100 to 1000 | 
2 | Nc1cnc2ccc(CCC3=C[C@@H](n4ccc5c(N)ncnc54)[C@H](O)[C@@H]3O)cc2n1 [Compound 3, (1S,2R,5R)-5-(4-Amino-7H-pyrrolo[2,3-d]pyrimidin-7-yl)-3-(2-(3-aminoquinoxalin-6-yl)ethyl)cyclopent-3-ene-1,2-diol] | 0.25 to 0.95 | 1100 to 50000 | > 1000 |  | 
3 | Nc1cnc2ccc(CC[C@@]34C[C@@H]3[C@@H](n3ccc5c(N)ncnc53)[C@H](O)[C@@H]4O)cc2n1 [Compound 4, (1R,2R,3S,4R,5S)-4-(4-Amino-7H-pyrrolo[2,3-d]pyrimidin-7-yl)-1-(2-(3-aminoquinoxalin-6-yl)ethyl)bicyclo[3.1.0]hexane-2,3-diol] | 0.25 to 0.95 | 1100 to 50000 | > 1000 |  | 
4 | Nc1nc2cc(CCC3=C[C@@H](n4ncc5c(N)ncnc54)[C@H](O)[C@@H]3O)cc(F)c2cc1Cl [Compound 5, (1S,2R,5R)-5-(4-Amino-1H-pyrazolo[3,4-d]pyrimidin-1-yl)-3-(2-(2-amino-3-chloro-5-fluoroquinolin-7-yl)ethyl)cyclopent-3-ene-1,2-diol] | 0.25 to 0.95 |  |  | 100 to 1000 | 101 to 1000
5 | Nc1ncnc2c1ccn2[C@@H]1C=C(COc2cc(C(F)F)cc3c2CNCC3)[C@@H](O)[C@H]1O [Compound 7, (1S,2R,5R)-5-(4-amino-7H-pyrrolo[2,3-d]pyrimidin-7-yl)-3-(((6-(difluoromethyl)-1,2,3,4-tetrahydroisoquinolin-8-yl)oxy)methyl)cyclopent-3-ene-1,2-diol] | 0.25 to 0.95 | 1100 to 50000 | > 1000 |  | 
6 | Nc1nc2cc(CCC3=C[C@@H](n4ccc5c4ncn4ccnc54)[C@H](O)[C@@H]3O)cc(F)c2cc1Cl [Compound 27, (1S,2R,5R)-3-(2-(2-Amino-3-chloro-5-fluoroquinolin-7-yl)ethyl)-5-(7H-imidazo[1,2-c]pyrrolo[3,2-e]pyrimidin-7-yl)cyclopent-3-ene-1,2-diol] | > 0.95 |  | > 1000 |  | 
7 | Nc1nc2cc(CCC3=C[C@@H](n4ncc5c4ncn4ccnc54)[C@H](O)[C@@H]3O)cc(F)c2cc1Cl [Compound 29, (1S,2R,5R)-3-(2-(2-Amino-3-chloro-5-fluoroquinolin-7-yl)ethyl)-5-(7H-imidazo[1,2-c]pyrazolo[4,3-e]pyrimidin-7-yl)cyclopent-3-ene-1,2-diol] | > 0.95 |  |  |  | 

The remaining lines, values ahead:

Row | IC50 (PRMT5:MEP50) [nM] | IC50 (SDMA; [1]) [pM] | IC50 (Z-138 cells) [pM] | IC50 (SDMA; [2]) [pM] | IC50 (Z-138 cells; [2]) [pM] | SMILES
8 | 0.25 to 0.95 | 1100 to 50000 | > 1000 |  |  | CC1CNCc2c(CCC3=C[C@@H](n4ccc5c(N)ncnc54)[C@H](O)[C@@H]3O)cc(C(F)F)c(F)c21 (single isomer, unassigned) [Compound 22A]
9 |  |  |  | 100 to 1000 |  | CC1CNCc2c(CCC3=C[C@@H](n4ccc5c(N)ncnc54)[C@H](O)[C@@H]3O)cc(C(F)F)c(F)c21 (single isomer, unassigned) [Compound 22B]
10 |  | 1100 to 50000 | > 1000 |  |  | CC1Cc2c(F)c(C(F)F)cc(CCC3=C[C@@H](n4ccc5c(N)ncnc54)[C@H](O)[C@@H]3O)c2CN1 (single isomer, unassigned) [Compound 23B]
11 | 0.25 to 0.95 |  |  | 100 to 1000 |  | Nc1nc2cc(CCC3=C[C@@H](n4cnc5c(N)ncnc54)[C@H](O)[C@@H]3O)cc(F)c2cc1Cl [Compound 1, (1S,2R,5R)-3-(2-(2-Amino-3-chloro-5-fluoroquinolin-7-yl)ethyl)-5-(6-amino-9H-purin-9-yl)cyclopent-3-ene-1,2-diol]
12 | 0.25 to 0.95 | 1100 to 50000 | > 1000 |  |  | Nc1nc2cc(CCC3=C[C@@H](n4ccc5c(N)ncnc54)[C@H](O)[C@@H]3O)cnc2cc1Cl [Compound 2, (1S,2R,5R)-3-(2-(6-Amino-7-chloro-1,5-naphthyridin-3-yl)ethyl)-5-(4-amino-7H-pyrrolo [2,3-d]pyrimidin-7-yl)cyclopent-3-ene-1,2-diol]
13 | 0.25 to 0.95 | 1100 to 50000 |  |  | 101 to 1000 | Cc1nc(N)c2cnn([C@@H]3C=C(CCc4cc(F)c5cc(Cl)c(N)nc5c4)[C@@H](O)[C@H]3O)c2n1 [Compound 6, (1S,2R,5R)-3-(2-(2-amino-3-chloro-5-fluoroquinolin-7-yl)ethyl)-5-(4-amino-6-methyl-1H-pyrazolo[3,4-d]pyrimidin-1-yl)cyclopent-3-ene-1,2-diol]
14 | 0.25 to 0.95 | 1100 to 50000 | > 1000 |  |  | Cc1cc2c(c(CCC3=C[C@@H](n4ccc5c(N)ncnc54)[C@H](O)[C@@H]3O)c1)CNCC2 [Compound 8, (1S,2R,5R)-5-(4-amino-7H-pyrrolo[2,3-d]pyrimidin-7-yl)-3-(2-(6-methyl-1,2,3,4-tetrahydroisoquinolin-8-yl)ethyl)cyclopent-3-ene-1,2-diol]
15 | 0.25 to 0.95 |  |  |  |  | Nc1ccn([C@@H]2C=C(COc3cc(F)c4cc(Cl)c(N)nc4c3)[C@@H](O)[C@H]2O)c(=O)n1 [Compound 16, 4-Amino-1-((1R,4R,5S)-3-(((2-amino-3-chloro-5-fluoroquinolin-7-yl)oxy)methyl)-4,5-dihydroxycyclopent-2-en-1-yl)pyrimidin-2 (1H)-one]
16 | > 0.95 |  | > 1000 |  |  | Nc1nc2cc(CCC3=C[C@@H](n4ccc5cn6ccnc6nc54)[C@H](O)[C@@H]3O)ccc2cc1Cl [Compound 28, (1S,2R,5R)-3-(2-(2-Amino-3-chloroquinolin-7-yl)ethyl)-5-(8H-imidazo[1,2-a]pyrrolo[2,3-d]pyrimidin-8-yl)cyclopent-3-ene-1,2-diol]
17 | 0.25 to 0.95 |  |  | 100 to 1000 |  | CONc1ncnc2c1ccn2[C@@H]1C=C(CCc2cc(F)c3cc(Cl)c(N)nc3c2)[C@@H](O)[C@H]1O [Compound 30, (1S,2R,5R)-3-(2-(2-Amino-3-chloro-5-fluoroquinolin-7-yl)ethyl)-5-(4-(methoxyamino)-7H-pyrrolo[2,3-d]pyrimidin-7-yl)cyclopent-3-ene-1,2-diol]
